Laboratory results from article PMC11912475 (Journal of Medicinal Chemistry, 2025).

Assays:
[1] = target: GluN1-GluN2A NMDAR subtype (Homo sapiens, UniProt Q05586+Q12879); assay: FLIPR/Ca2+ assay, NMDAR GluN1-GluN2A subtype in CHO cells; assay type: cell-based; conditions: CHO cells, 10 μM L-glutamate and 10 μM glycine; n.d. = 50% of inhibition could not be reached at the highest concentration used
Procedure, shortened: (§1)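 Fluo-4-loaded CHO cells (with probenecid and 500 μM ketamine during loading) stimulated with 10 μM L-glutamate plus 10 μM glycine added together with compounds, in HEPES buffer pH 7.3 with 2 mM CaCl2.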

[2] = target: T1, GluN1-GluN2B NMDAR subtype (Homo sapiens, UniProt Q05586+Q13224); assay: FLIPR/Ca2+ assay, NMDAR GluN1-GluN2B subtype in CHO cells; assay type: cell-based; conditions: CHO cells, 10 μM L-glutamate and 10 μM glycine; n.d. = 50% of inhibition could not be reached at the highest concentration used
T1 construct: host or cells: NR1-2B-CHO cells, constitutive expression
Procedure, shortened: as §1

[3] = target: GluN1-GluN2C NMDAR subtype (Homo sapiens, UniProt Q05586+Q14957); assay: FLIPR/Ca2+ assay, NMDAR GluN1-GluN2C subtype in CHO cells; assay type: cell-based; conditions: CHO cells, 10 μM L-glutamate and 10 μM glycine; n.d. = 50% of inhibition could not be reached at the highest concentration used
Procedure, shortened: as §1

[4] = target: GluN1-GluN2D NMDAR subtype (Homo sapiens, UniProt O15399+Q05586); assay: FLIPR/Ca2+ assay, NMDAR GluN1-GluN2D subtype in CHO cells; assay type: cell-based; conditions: CHO cells, 10 μM L-glutamate and 10 μM glycine; n.d. = 50% of inhibition could not be reached at the highest concentration used
Procedure, shortened: as §1

[5] = system: Glutamate, NMDA, Phencyclidine binding site; assay: Radioligand displacement binding assay, [3H]TCP, NMDA; design: species or system Wistar rat; conditions: for pKi (mean ± SEM) [3H]TCP, NMDA: Wistar rat cerebral cortex, 4.0 nM [3H]TCP
Histamine H1 = target: T2, Histamine H1 (Homo sapiens, UniProt P35367); assay: Radioligand displacement binding assay, [3H]pyrilamine, H1
T2 construct: host or cells: CHO-K1

Muscarinic M5 = target: T3, Muscarinic M5 (Homo sapiens, UniProt P08912); assay: Radioligand displacement binding assay, [3H]N-methylscopolamine, M5
T3 construct: host or cells: CHO-K1
T3 sequence (P08912 1-532): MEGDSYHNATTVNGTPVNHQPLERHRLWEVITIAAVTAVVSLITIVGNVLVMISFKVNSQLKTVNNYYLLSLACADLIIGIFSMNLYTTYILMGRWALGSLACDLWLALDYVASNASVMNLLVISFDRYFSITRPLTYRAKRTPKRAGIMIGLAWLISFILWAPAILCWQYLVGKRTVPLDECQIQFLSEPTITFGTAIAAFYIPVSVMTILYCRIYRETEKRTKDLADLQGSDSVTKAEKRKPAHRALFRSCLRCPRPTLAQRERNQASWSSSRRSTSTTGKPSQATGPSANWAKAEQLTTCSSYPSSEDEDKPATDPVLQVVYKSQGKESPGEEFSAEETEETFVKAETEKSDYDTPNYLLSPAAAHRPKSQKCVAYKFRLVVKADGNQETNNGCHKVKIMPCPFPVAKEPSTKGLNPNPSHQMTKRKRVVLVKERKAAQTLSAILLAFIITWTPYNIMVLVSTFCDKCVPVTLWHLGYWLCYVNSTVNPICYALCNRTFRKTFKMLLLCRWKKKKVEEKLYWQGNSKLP

μ opioid receptor (MOP) = target: T4, μ opioid receptor (MOP) (Homo sapiens, UniProt P35372); assay: biochemical; assay type: binding; conditions: for inhibition at 0.3 µM / inhibition at 3 µM: read-out: % inhibition of binding, MOP
T4 construct: host or cells: CHO-K1

Serotonin 5-HT1A = target: T5, Serotonin 5-HT1A (Homo sapiens, UniProt P08908); assay: Radioligand displacement binding assay, [3H]8-OH-DPAT, 5-HT1A
T5 construct: host or cells: CHO-K1
T5 sequence (P08908 1-422): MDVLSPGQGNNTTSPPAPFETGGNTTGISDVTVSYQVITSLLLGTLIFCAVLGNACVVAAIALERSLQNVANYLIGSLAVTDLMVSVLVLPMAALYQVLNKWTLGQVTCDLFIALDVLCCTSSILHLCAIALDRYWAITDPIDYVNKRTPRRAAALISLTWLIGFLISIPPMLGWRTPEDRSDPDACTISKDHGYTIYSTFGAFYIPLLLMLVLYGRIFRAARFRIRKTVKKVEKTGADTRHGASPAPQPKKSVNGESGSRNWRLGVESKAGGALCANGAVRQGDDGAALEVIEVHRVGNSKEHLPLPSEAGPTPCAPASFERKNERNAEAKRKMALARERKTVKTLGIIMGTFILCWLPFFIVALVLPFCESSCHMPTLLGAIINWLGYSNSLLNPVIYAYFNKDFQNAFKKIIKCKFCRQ

Serotonin 5-HT2A = target: T6, Serotonin 5-HT2A (Homo sapiens, UniProt P28223); assay: Radioligand displacement binding assay, [3H]ketanserin, 5-HT2A
T6 construct: host or cells: CHO-K1

Serotonin 5-HT2C = target: T7, Serotonin 5-HT2C (Homo sapiens, UniProt P28335); assay: Radioligand displacement binding assay, [3H]mesulergine, 5-HT2C
T7 construct: host or cells: CHO-K1
T7 sequence (P28335 33-458): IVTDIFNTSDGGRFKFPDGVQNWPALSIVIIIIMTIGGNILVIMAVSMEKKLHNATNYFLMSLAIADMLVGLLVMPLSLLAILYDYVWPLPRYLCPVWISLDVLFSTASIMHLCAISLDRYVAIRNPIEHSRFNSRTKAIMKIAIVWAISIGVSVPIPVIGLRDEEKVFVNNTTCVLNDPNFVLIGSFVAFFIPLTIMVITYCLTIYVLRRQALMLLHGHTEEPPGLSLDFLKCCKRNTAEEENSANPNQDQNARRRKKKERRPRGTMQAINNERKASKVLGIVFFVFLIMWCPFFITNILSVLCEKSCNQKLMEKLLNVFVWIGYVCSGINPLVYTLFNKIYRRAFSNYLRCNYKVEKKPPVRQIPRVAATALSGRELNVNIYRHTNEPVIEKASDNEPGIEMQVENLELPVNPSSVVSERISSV

Serotonin 5-HT5A = target: T8, Serotonin 5-HT5A (Homo sapiens, UniProt P47898); assay: Radioligand displacement binding assay, [3H]LSD, 5-HT5A
T8 construct: host or cells: CHO-K1

Serotonin 5-HT7 = target: T9, Serotonin 5-HT7 (Homo sapiens, UniProt P34969); assay: Radioligand displacement binding assay, [3H]LSD, 5-HT7
T9 construct: host or cells: CHO-K1

Sigma σ1 = target: T10, Sigma σ1 (Homo sapiens, UniProt Q99720); assay: Radioligand displacement binding assay, [3H]pentazocine, sigma σ1
T10 construct: Sigma σ1; Source: Human Jurkat cells; host or cells: Jurkat

[6] = target: T11, Norepinephrine transporter NET (Homo sapiens, UniProt P23975); assay: Radioligand displacement binding assay, [125I]RTI-55, NET
T11 construct: host or cells: MDCK

[7] = target: T12, Serotonin transporter SERT (Homo sapiens, UniProt P31645); assay: Radioligand displacement binding assay, [3H]paroxetine, SERT; conditions: for % inhibition of binding, SERT / inhibition at 10 µM: 10 μM
T12 construct: host or cells: HEK-293
T12 sequence (P31645 whole entry): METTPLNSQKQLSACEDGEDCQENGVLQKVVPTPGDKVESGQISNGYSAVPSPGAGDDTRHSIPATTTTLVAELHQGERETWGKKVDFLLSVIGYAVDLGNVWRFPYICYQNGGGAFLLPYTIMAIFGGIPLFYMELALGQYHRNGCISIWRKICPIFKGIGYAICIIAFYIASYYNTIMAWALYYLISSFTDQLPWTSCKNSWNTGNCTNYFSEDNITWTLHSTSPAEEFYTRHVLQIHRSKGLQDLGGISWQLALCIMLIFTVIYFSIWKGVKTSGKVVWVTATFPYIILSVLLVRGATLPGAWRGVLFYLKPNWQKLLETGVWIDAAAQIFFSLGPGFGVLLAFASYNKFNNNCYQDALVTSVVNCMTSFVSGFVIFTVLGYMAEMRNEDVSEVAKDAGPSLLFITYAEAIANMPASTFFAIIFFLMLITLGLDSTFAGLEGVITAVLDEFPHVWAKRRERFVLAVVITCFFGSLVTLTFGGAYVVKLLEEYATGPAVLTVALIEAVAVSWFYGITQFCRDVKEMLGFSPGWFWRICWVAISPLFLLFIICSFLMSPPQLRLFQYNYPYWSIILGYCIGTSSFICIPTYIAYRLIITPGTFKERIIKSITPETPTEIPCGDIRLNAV

T11 sequence (P23975 whole entry): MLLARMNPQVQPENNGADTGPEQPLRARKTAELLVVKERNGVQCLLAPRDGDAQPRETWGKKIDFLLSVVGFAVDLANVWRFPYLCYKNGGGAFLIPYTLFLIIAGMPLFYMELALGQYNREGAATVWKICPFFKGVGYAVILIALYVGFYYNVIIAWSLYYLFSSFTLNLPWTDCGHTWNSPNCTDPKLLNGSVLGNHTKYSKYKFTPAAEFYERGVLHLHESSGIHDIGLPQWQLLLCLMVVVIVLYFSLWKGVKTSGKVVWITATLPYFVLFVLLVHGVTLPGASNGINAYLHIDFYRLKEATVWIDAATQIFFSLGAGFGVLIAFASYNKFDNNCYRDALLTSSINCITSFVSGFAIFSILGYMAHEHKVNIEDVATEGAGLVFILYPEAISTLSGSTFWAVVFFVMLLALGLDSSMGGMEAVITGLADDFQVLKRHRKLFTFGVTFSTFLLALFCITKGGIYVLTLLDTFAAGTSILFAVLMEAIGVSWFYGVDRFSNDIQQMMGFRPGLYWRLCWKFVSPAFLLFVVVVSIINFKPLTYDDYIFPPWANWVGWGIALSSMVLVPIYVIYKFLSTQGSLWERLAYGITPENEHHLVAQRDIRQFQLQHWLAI
T2 sequence (P35367 whole entry): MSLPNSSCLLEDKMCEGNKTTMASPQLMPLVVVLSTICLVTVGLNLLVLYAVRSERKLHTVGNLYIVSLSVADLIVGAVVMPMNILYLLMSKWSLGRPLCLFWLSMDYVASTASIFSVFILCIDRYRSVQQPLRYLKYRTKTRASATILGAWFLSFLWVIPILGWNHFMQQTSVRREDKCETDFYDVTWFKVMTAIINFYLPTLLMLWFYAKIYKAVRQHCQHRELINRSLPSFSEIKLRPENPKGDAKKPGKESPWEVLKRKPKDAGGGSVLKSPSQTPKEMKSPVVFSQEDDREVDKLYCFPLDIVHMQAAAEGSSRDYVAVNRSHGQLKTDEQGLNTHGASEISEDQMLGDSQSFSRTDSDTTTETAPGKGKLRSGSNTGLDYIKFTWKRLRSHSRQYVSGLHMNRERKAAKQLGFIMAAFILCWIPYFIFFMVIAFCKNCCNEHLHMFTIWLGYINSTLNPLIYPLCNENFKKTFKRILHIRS
T8 sequence (P47898 whole entry): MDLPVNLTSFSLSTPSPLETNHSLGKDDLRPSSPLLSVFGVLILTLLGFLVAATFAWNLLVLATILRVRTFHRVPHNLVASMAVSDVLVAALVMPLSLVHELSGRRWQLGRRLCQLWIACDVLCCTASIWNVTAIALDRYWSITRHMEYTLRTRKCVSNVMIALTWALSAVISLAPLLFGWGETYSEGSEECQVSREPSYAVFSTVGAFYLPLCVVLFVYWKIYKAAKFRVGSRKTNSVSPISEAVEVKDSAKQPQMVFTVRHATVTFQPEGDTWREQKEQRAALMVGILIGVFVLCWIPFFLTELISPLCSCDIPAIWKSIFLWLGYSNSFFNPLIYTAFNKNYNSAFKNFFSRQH
T10 sequence (Q99720 whole entry): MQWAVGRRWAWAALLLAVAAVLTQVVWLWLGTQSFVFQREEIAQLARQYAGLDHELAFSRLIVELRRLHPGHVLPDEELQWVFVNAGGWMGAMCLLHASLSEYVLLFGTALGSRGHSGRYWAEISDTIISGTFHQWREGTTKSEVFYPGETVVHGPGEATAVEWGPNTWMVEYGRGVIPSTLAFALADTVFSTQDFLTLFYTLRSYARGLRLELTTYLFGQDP
T9 sequence (P34969 whole entry): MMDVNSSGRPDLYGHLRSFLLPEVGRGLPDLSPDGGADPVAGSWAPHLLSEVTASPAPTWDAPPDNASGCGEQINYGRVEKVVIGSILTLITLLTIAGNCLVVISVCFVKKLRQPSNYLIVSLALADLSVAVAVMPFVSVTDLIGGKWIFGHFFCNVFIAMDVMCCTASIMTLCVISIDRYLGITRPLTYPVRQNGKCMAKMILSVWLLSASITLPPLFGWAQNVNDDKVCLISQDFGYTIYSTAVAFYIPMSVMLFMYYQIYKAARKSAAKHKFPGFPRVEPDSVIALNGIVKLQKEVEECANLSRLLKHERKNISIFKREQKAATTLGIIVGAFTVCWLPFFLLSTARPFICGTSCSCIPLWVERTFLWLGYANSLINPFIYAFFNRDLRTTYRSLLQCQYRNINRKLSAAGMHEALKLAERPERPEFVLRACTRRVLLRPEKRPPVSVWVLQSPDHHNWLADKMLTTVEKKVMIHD
T6 sequence (P28223 whole entry): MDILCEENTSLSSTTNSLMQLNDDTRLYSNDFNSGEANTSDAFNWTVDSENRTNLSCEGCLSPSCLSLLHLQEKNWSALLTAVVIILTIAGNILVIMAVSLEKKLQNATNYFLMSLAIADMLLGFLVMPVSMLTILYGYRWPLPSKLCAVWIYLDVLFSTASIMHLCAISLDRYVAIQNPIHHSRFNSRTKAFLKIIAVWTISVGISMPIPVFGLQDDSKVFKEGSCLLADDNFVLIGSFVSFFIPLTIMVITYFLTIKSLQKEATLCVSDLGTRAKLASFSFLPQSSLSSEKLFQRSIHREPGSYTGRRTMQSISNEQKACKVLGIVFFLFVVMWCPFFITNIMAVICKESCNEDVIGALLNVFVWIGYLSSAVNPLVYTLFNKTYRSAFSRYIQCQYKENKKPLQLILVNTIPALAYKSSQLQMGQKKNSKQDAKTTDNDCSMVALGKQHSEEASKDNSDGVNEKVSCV
T4 sequence (P35372 whole entry): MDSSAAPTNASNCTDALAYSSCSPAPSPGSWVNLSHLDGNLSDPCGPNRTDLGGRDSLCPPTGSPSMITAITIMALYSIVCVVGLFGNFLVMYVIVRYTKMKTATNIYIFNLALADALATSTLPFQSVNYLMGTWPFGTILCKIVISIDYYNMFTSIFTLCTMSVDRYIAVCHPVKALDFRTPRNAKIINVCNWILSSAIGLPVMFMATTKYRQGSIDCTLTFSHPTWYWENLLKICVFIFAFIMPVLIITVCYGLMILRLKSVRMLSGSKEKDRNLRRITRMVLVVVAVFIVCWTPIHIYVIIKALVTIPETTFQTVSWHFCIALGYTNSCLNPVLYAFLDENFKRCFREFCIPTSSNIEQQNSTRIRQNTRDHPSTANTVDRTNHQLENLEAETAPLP
Chain of GluN1-GluN2D NMDAR subtype (O15399 28-1336, other chains not shown): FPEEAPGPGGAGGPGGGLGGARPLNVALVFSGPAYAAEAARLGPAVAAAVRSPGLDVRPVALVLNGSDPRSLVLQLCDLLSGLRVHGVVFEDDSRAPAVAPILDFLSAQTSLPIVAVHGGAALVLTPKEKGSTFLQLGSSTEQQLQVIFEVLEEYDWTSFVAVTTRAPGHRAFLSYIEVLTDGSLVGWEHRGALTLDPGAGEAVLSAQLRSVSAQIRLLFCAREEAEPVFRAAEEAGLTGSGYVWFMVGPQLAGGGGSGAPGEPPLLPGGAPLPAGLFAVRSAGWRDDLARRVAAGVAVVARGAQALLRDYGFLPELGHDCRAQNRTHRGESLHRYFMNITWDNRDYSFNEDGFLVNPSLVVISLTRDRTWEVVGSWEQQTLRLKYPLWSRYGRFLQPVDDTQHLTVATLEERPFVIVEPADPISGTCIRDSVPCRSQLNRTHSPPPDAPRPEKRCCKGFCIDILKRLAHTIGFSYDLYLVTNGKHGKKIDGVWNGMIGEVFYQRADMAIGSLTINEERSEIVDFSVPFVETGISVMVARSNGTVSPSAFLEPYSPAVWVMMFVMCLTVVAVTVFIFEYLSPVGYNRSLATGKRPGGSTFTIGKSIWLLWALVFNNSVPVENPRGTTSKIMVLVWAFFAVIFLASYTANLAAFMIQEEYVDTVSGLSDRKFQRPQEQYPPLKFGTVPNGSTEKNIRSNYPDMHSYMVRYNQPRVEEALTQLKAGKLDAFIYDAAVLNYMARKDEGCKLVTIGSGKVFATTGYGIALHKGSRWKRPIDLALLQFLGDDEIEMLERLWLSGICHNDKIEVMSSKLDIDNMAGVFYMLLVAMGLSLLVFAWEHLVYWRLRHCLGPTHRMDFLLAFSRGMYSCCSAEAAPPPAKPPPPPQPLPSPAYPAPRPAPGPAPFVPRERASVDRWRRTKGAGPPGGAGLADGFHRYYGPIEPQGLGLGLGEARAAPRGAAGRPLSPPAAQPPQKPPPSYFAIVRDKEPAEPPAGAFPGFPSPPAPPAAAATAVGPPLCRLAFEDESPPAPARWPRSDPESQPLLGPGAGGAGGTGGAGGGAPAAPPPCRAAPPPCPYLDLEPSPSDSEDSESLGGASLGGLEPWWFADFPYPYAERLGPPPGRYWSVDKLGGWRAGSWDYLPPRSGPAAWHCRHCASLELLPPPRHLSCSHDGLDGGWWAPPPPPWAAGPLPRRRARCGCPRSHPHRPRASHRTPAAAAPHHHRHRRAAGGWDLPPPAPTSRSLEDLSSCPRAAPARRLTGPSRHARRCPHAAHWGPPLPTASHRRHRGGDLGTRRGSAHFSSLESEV

In the case of CC[C@H](O)C(C[C@@H](C)NC)(c1ccccc1)c1ccccc1 [(3S,6R)-NML, (3S,6R)-6-(methylamino)-4,4-diphenylheptan-3-ol], the “pIC50 (mean ± SEM) GluN1-GluN2A” value [1] is reported as 4.8 ± 0.050, the “pIC50 (mean ± SEM) GluN1-GluN2B” value [2] is reported as 4.6 ± 0.047 and the “pIC50 (mean ± SEM) GluN1-GluN2C” value [3] is reported as 5.0 ± 0.049. The “pIC50 (mean ± SEM) GluN1-GluN2D” value [4] was 5.0 ± 0.058, the “% inhibition of binding, NMDA” value ([5]; 1 μM) was -5% and the “% inhibition of binding, NMDA” value ([5]; 10 μM) was 51%. For the same compound, the “pKi (mean ± SEM) [3H]TCP, NMDA” value [5] was 5.54 ± 0.09, the inhibition at 10 µM (Histamine H1) was 7% and the inhibition at 30 µM (Histamine H1) was 27%. The inhibition at 1 µM (Muscarinic M5) was 21%, the inhibition at 10 µM (Muscarinic M5) was 74% and the “pKi (mean ± SEM) [3H]diprenorphine, MOP” value (μ opioid receptor (MOP)) was 5.55 ± 0.17. For the same compound, the inhibition at 0.3 µM (μ opioid receptor (MOP)) was 2%, the inhibition at 3 µM (μ opioid receptor (MOP)) was 26% and the inhibition at 0.3 µM (Serotonin 5-HT1A) was -1%. The inhibition at 3 µM (Serotonin 5-HT1A) was -4%, the inhibition at 0.3 µM (Serotonin 5-HT2A) was -3% and the inhibition at 3 µM (Serotonin 5-HT2A) was 11%. The inhibition at 0.3 µM (Serotonin 5-HT2C) was 15%, the inhibition at 3 µM (Serotonin 5-HT2C) was 68% and the inhibition at 1 µM (Serotonin 5-HT5A) was 4%. For the same compound, the inhibition at 10 µM (Serotonin 5-HT5A) was 42%, the inhibition at 1 µM (Serotonin 5-HT7) was 11% and the inhibition at 10 µM (Serotonin 5-HT7) was 7%. It also gave an inhibition at 0.3 µM (Sigma σ1) of -1%, an inhibition at 3 µM (Sigma σ1) of 26% and an inhibition at 1 µM [6] of 4%. For the same compound, the inhibition at 10 µM [6] was 9%, the inhibition at 1 µM [7] was 10% and the “% inhibition of binding, SERT” value [7] was “displaced”. For the same compound, the inhibition at 10 µM [7] was 61%.
With CC[C@@H](O)C(C[C@@H](C)NC)(c1ccccc1)c1ccccc1 [(3R,6R)-NML, (3R,6R)-6-(methylamino)-4,4-diphenylheptan-3-ol] the “pIC50 (mean ± SEM) GluN1-GluN2A” value [1] was 5.0 ± 0.081, the “pIC50 (mean ± SEM) GluN1-GluN2B” value [2] was 4.8 ± 0.055 and the “pIC50 (mean ± SEM) GluN1-GluN2C” value [3] was 5.0 ± 0.048. For the same compound, the “pIC50 (mean ± SEM) GluN1-GluN2D” value [4] was 5.0 ± 0.052, the “% inhibition of binding, NMDA” value ([5]; 1 μM) was 17% and the “% inhibition of binding, NMDA” value ([5]; 10 μM) was 57%. For the same compound, the “pKi (mean ± SEM) [3H]TCP, NMDA” value [5] was 5.56 ± 0.07, the inhibition at 10 µM (Histamine H1) was 15% and the inhibition at 30 µM (Histamine H1) was 20%. For the same compound, the inhibition at 1 µM (Muscarinic M5) was 15%, the inhibition at 10 µM (Muscarinic M5) was 43% and the “pKi (mean ± SEM) [3H]diprenorphine, MOP” value (μ opioid receptor (MOP)) was 5.64 ± 0.09. It also gave an inhibition at 0.3 µM (μ opioid receptor (MOP)) of 4%, an inhibition at 3 µM (μ opioid receptor (MOP)) of 11% and an inhibition at 0.3 µM (Serotonin 5-HT1A) of -9%. For the same compound, the inhibition at 3 µM (Serotonin 5-HT1A) was -10%, the inhibition at 0.3 µM (Serotonin 5-HT2A) was 0% and the inhibition at 3 µM (Serotonin 5-HT2A) was -3%. For the same compound, the inhibition at 0.3 µM (Serotonin 5-HT2C) was 18%, the inhibition at 3 µM (Serotonin 5-HT2C) was 16% and the inhibition at 1 µM (Serotonin 5-HT5A) was 13%. For the same compound, the inhibition at 10 µM (Serotonin 5-HT5A) was 63%, the inhibition at 1 µM (Serotonin 5-HT7) was 4% and the inhibition at 10 µM (Serotonin 5-HT7) was 5%. The inhibition at 0.3 µM (Sigma σ1) was 4%, the inhibition at 3 µM (Sigma σ1) was 33% and the inhibition at 1 µM [6] was -2%. For the same compound, the inhibition at 10 µM [6] was 14%, the inhibition at 1 µM [7] was 18% and the “% inhibition of binding, SERT” value [7] was “displaced”. For the same compound, the inhibition at 10 µM [7] was 69%.
